Laboratory results reported in paper PMC7101356, “Cross-site and cross-platform variability of automated patch clamp assessments of drug effects on human cardiac currents in recombinant cells” (Scientific Reports, 2020).
Read-outs that look alike come from different tables or passages of the source.

Legend:
peak hNav1.5 = biological target: T1, peak hNav1.5 (Homo sapiens, UniProt Q14524); experiment: Automated patch clamp, peak hNav1.5 current block; type: cell-based
T1 construct: expressed in transfected cells; host or cells: HEK293 or CHO, depending on site
Method: Peak current was measured during the depolarizing step to −15 mV. Leak current was measured after applying a saturating concentration of a blocker such as lidocaine (2 mM) at the end of each experiment to completely block hNav1.5 current.
(§1) Concentration-response relationships for each test article were independently investigated, i.e., each cell received only one test article, typically evaluating multiple concentrations in a cumulative fashion (lowest to highest concentrations). However, some platforms tested only one concentration per well. Each concentration response was based on a minimum of four concentrations, with a minimum of three wells used for each concentration. In cases of high variability, more cells per concentration were recorded. Prior to drug addition, cells received an addition of vehicle to measure non-test article-related effects such as addition artifacts. At the end of the experiment, a supramaximal concentration of a known inhibitory reference compound was applied to assess leak current and appropriate responsiveness of the test system.
(§2) The steady state current at each concentration was used to determine the concentration-response relationships. Mean concentration-response data were fitted to a standard sigmoidal four-parameter logistic equation (GraphPad Prism 7; GraphPad Inc., La Jolla, CA) of the form: Y=Bottom+(Top−Bottom)/(1+10^∧(LogIC50−X)∗HillSlope) where Y is the current inhibition (in % of pre-drug control), X is the logarithm of drug concentration, and IC50 is the drug concentration producing half-maximal current inhibition. Curve fitting was performed using the following constraints: Top = 100%, Bottom = 0%, Hill Slope <2. No curve fitting was performed in cases with an obvious lack of a concentration-dependent current inhibition and/or small effect size (approximately ≤20%).

late hNav1.5 = biological target: T2, late hNav1.5 (Homo sapiens, UniProt Q14524); experiment: Automated patch clamp, late hNav1.5 current block (ATX-II activated); type: cell-based
T2 construct: expressed in transfected cells; host or cells: HEK293 or CHO, depending on site
Method: However, all external solutions contained 30 nM ATX-II in order to activate late current. Late current was measured at its maximum during the repolarizing ramp.
as §1, §2

[1] = based on CiPA evaluations; cited from earlier work
hCav1.2 = hCav1.2 (Homo sapiens, UniProt Q13936); experiment: Automated patch clamp, hCav1.2 current block
Method: Peak current was measured during the step to 0 mV. Leak current was measured after applying a saturating concentration of a blocker such as cadmium (200 µM) at the end of each experiment to completely block hCav1.2 current.
Concentration-response relationships for each test article were independently investigated, i.e., each cell received only one test article, typically evaluating multiple concentrations in a cumulative fashion (lowest to highest concentrations). However, some platforms tested only one concentration per well. Each concentration response was based on a minimum of four concentrations, with a minimum of three wells used for each concentration. In cases of high variability, more cells per concentration were recorded. Prior to drug addition, cells received an addition of vehicle to measure non-test article-related effects such as addition artifacts. At the end of the experiment, a supramaximal concentration of a known inhibitory reference compound was applied to assess leak current and appropriate responsiveness of the test system. While it was recommended that a separate group of cells (n ≥ 3) be recorded for each experimental day to determine the baseline response to vehicle and to address day-to-day variability, this was not verified.
These criteria were applied to all APC platforms.
as §2

hERG = hERG (Homo sapiens, UniProt Q12809); experiment: Automated patch clamp, hERG current block (consensus step-ramp protocol); conditions: human, hERG K+ current inhibition, Mean, 1.00E-08 mol/L
[2] = site_platform s06_p4, 1.00E-08 mol/L
[3] = site_platform s06_p4, 3.00E-07 mol/L
[4] = site_platform s07_p6, 1.00E-08 mol/L
[5] = site_platform s07_p6, 3.00E-07 mol/L
[6] = site_platform s13_p2, 1.00E-08 mol/L
[7] = site_platform s13_p2, 3.00E-07 mol/L
[8] = site_platform s14_p1, 1.00E-08 mol/L
[9] = site_platform s14_p1, 3.00E-07 mol/L

T1 sequence (Q14524 whole entry): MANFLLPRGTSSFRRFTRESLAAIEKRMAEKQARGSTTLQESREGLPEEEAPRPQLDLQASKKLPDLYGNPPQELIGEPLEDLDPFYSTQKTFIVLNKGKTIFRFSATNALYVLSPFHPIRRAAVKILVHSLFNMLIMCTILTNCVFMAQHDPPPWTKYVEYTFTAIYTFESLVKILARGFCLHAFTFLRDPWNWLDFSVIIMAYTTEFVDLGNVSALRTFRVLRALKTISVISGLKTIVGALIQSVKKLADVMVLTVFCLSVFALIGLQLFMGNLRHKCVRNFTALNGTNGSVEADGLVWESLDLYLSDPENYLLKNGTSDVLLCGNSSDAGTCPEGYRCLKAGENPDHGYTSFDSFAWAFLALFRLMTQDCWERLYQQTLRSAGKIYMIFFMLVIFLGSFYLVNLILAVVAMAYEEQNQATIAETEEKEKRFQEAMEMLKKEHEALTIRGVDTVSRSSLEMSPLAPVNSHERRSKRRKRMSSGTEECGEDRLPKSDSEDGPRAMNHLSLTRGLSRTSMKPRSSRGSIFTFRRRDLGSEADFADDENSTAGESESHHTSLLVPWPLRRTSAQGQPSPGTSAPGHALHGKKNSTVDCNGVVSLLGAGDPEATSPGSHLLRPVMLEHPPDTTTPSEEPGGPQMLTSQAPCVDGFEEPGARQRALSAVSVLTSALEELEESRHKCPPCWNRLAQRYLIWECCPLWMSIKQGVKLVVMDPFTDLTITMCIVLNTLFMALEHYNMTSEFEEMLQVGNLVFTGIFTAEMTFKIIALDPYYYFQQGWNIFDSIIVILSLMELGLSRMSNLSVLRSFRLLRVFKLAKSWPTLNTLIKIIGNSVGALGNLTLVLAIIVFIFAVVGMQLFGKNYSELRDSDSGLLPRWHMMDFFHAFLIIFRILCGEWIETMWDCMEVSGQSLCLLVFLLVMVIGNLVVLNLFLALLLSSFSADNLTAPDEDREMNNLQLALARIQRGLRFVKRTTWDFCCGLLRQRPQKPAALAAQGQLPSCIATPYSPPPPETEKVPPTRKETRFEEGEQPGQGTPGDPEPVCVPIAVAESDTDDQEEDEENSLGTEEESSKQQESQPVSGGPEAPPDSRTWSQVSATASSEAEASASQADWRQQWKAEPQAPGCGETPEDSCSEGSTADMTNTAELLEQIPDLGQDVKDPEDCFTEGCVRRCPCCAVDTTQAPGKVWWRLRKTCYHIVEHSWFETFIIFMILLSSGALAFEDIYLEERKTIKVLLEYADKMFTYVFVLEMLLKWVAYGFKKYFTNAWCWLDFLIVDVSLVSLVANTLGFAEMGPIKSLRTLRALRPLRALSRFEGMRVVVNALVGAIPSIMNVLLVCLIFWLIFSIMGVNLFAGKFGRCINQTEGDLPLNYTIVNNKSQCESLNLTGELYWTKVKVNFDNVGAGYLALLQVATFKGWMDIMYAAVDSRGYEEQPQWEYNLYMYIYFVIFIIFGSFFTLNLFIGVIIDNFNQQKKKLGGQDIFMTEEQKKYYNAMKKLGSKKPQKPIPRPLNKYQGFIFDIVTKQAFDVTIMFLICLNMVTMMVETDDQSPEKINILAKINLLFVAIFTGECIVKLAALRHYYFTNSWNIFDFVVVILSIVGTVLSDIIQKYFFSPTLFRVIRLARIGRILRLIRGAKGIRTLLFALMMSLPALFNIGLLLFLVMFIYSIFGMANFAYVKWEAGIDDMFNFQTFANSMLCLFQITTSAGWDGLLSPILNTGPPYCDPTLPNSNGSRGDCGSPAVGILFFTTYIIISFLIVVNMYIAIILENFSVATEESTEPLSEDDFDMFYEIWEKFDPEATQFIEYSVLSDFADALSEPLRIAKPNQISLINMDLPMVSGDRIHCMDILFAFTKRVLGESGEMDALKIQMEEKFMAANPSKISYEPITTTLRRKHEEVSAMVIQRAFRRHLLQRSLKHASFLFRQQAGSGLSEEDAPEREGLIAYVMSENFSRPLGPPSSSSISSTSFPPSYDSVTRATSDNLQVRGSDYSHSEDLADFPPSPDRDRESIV
T2 sequence (Q14524 whole entry): as above

With `CC(C)COCC(CN(Cc1ccccc1)c1ccccc1)N1CCCC1` (stereo not drawn) [bep, bepridil] the IC50 (peak hNav1.5) was 2450 nM, the “log IC50, peak hNav1.5 Na+ current inhibition” value (peak hNav1.5; site_platform s01_p1) was “no inh” and the “Peak hNav1.5 Na+ current inhibition, Mean” value (peak hNav1.5; site_platform s01_p1, 1.00E-08 mol/L) was 27.2%. For the same compound, the “Peak hNav1.5 Na+ current inhibition, Mean” value (peak hNav1.5; site_platform s01_p1, 3.00E-07 mol/L) was 49.4%, the “log IC50, peak hNav1.5 Na+ current inhibition” value (peak hNav1.5; site_platform s02_p2) was “no inh” and the “Peak hNav1.5 Na+ current inhibition, Mean” value (peak hNav1.5; site_platform s02_p2, 1.00E-08 mol/L) was 0.5%. The “Peak hNav1.5 Na+ current inhibition, Mean” value (peak hNav1.5; site_platform s02_p2, 3.00E-07 mol/L) was 5.1%, the “log IC50, peak hNav1.5 Na+ current inhibition” value (peak hNav1.5; site_platform s04_p3) was “no inh” and the “Peak hNav1.5 Na+ current inhibition, Mean” value (peak hNav1.5; site_platform s04_p3, 1.00E-08 mol/L) was 7.9%. The “Peak hNav1.5 Na+ current inhibition, Mean” value (peak hNav1.5; site_platform s04_p3, 3.00E-07 mol/L) was 13.7%, the “log IC50, peak hNav1.5 Na+ current inhibition” value (peak hNav1.5; site_platform s06_p4) was “no inh” and the “Peak hNav1.5 Na+ current inhibition, Mean” value (peak hNav1.5; [2]) was -6.3%. For the same compound, the “Peak hNav1.5 Na+ current inhibition, Mean” value (peak hNav1.5; [3]) was 0.9%, the “log IC50, peak hNav1.5 Na+ current inhibition” value (peak hNav1.5; site_platform s07_p6) was “no inh” and the “Peak hNav1.5 Na+ current inhibition, Mean” value (peak hNav1.5; [4]) was -3.3%. For the same compound, the “Peak hNav1.5 Na+ current inhibition, Mean” value (peak hNav1.5; [5]) was -0.6%, the “nH, Hill slope, peak hNav1.5 inhibition” value (peak hNav1.5; site_platform s10_p3) was 0.57 and the “Peak hNav1.5 Na+ current inhibition, Mean” value (peak hNav1.5; site_platform s10_p3, 1.00E-08 mol/L) was 3.5%. For the same compound, the “Peak hNav1.5 Na+ current inhibition, Mean” value (peak hNav1.5; site_platform s10_p3, 3.00E-07 mol/L) was 22.0%, the IC50 (peak hNav1.5; site_platform s10_p3, read-out: log IC50, peak hNav1.5 inhibition (converted)) was 2690 nM and the “log IC50, peak hNav1.5 inhibition” value (peak hNav1.5; site_platform s11_p1) was “no inh”. For the same compound, the “Peak hNav1.5 Na+ current inhibition, Mean” value (peak hNav1.5; site_platform s11_p1, 1.00E-08 mol/L) was 4.3%, the “Peak hNav1.5 Na+ current inhibition, Mean” value (peak hNav1.5; site_platform s11_p1, 3.00E-07 mol/L) was 10.4% and the “log IC50, peak hNav1.5 inhibition” value (peak hNav1.5; site_platform s12_p2) was “no inh”. The “Peak hNav1.5 Na+ current inhibition, Mean” value (peak hNav1.5; site_platform s12_p2, 1.00E-08 mol/L) was 0.0%, the “Peak hNav1.5 Na+ current inhibition, Mean” value (peak hNav1.5; site_platform s12_p2, 3.00E-07 mol/L) was 0.0% and the “log IC50, peak hNav1.5 inhibition” value (peak hNav1.5; site_platform s13_p2) was “no inh”. The “Peak hNav1.5 Na+ current inhibition, Mean” value (peak hNav1.5; [6]) was 3.2%, the “Peak hNav1.5 Na+ current inhibition, Mean” value (peak hNav1.5; [7]) was 6.7% and the “nH, Hill slope, peak hNav1.5 inhibition” value (peak hNav1.5; site_platform s14_p1) was 0.78. For the same compound, the “Peak hNav1.5 Na+ current inhibition, Mean” value (peak hNav1.5; [8]) was 6.0%, the “Peak hNav1.5 Na+ current inhibition, Mean” value (peak hNav1.5; [9]) was 17.8% and the “nH, Hill slope, peak hNav1.5 inhibition” value (peak hNav1.5; site_platform s15_p1) was 0.68. The “Peak hNav1.5 Na+ current inhibition, Mean” value (peak hNav1.5; site_platform s15_p1, 1.00E-08 mol/L) was 13.5%, the “Peak hNav1.5 Na+ current inhibition, Mean” value (peak hNav1.5; site_platform s15_p1, 3.00E-07 mol/L) was 51.4% and the IC50 (peak hNav1.5; site_platform s15_p1, read-out: log IC50, peak hNav1.5 inhibition (converted)) was 324 nM. For the same compound, the “nH, Hill slope, peak hNav1.5 inhibition” value (peak hNav1.5; site_platform s16_p3) was 0.36, the “Peak hNav1.5 Na+ current inhibition, Mean” value (peak hNav1.5; site_platform s16_p3, 1.00E-08 mol/L) was 8.1% and the “Peak hNav1.5 Na+ current inhibition, Mean” value (peak hNav1.5; site_platform s16_p3, 3.00E-07 mol/L) was 26.6%. The IC50 (peak hNav1.5; site_platform s16_p3, read-out: log IC50, peak hNav1.5 inhibition (converted)) was 4470 nM, the “nH, Hill slope, peak hNav1.5 inhibition” value (peak hNav1.5; site_platform s17_p1) was 1.09 and the “Peak hNav1.5 Na+ current inhibition, Mean” value (peak hNav1.5; site_platform s17_p1, 1.00E-08 mol/L) was 2.7%. For the same compound, the “Peak hNav1.5 Na+ current inhibition, Mean” value (peak hNav1.5; site_platform s17_p1, 3.00E-07 mol/L) was 30.0%, the IC50 (peak hNav1.5; site_platform s17_p1, read-out: log IC50, peak hNav1.5 inhibition (converted)) was 676 nM and the “log IC50, peak hNav1.5 inhibition” value (peak hNav1.5; site_platform s18_p1) was “no inh”. For the same compound, the “Peak hNav1.5 Na+ current inhibition, Mean” value (peak hNav1.5; site_platform s18_p1, 1.00E-08 mol/L) was 54.7%, the “Peak hNav1.5 Na+ current inhibition, Mean” value (peak hNav1.5; site_platform s18_p1, 3.00E-07 mol/L) was 68.5% and the “nH, Hill slope, peak hNav1.5 inhibition” value (peak hNav1.5; site_platform s19_p3) was 0.50. The “Peak hNav1.5 Na+ current inhibition, Mean” value (peak hNav1.5; site_platform s19_p3, 1.00E-08 mol/L) was 2.2%, the “Peak hNav1.5 Na+ current inhibition, Mean” value (peak hNav1.5; site_platform s19_p3, 3.00E-07 mol/L) was 17.3% and the IC50 (peak hNav1.5; site_platform s19_p3, read-out: log IC50, peak hNav1.5 inhibition (converted)) was 6920 nM. The “nH, Hill slope, late hNav1.5 inhibition” value (late hNav1.5; site_platform s06_p4) was 1.86, the “Late hNav1.5 Na+ current inhibition, Mean” value (late hNav1.5; [2]) was -0.5% and the “Late hNav1.5 Na+ current inhibition, Mean” value (late hNav1.5; [3]) was 43.7%. The IC50 (late hNav1.5; site_platform s06_p4, read-out: log IC50, late hNav1.5 inhibition (converted)) was 363 nM, the “log IC50, late hNav1.5 inhibition” value (late hNav1.5; site_platform s07_p6) was “no inh” and the “Late hNav1.5 Na+ current inhibition, Mean” value (late hNav1.5; [4]) was 5.5%. For the same compound, the “Late hNav1.5 Na+ current inhibition, Mean” value (late hNav1.5; [5]) was 12.3%, the “log IC50, late hNav1.5 inhibition” value (late hNav1.5; site_platform s13_p2) was “no inh” and the “Late hNav1.5 Na+ current inhibition, Mean” value (late hNav1.5; [6]) was 24.3%. For the same compound, the “Late hNav1.5 Na+ current inhibition, Mean” value (late hNav1.5; [7]) was 29.9%, the “log IC50, late hNav1.5 inhibition” value (late hNav1.5; site_platform s14_p1) was “no inh” and the “Late hNav1.5 Na+ current inhibition, Mean” value (late hNav1.5; [8]) was 54.2%. For the same compound, the “Late hNav1.5 Na+ current inhibition, Mean” value (late hNav1.5; [9]) was 10.2%, the “TdP Risk Category” value [1] was “High” and the “Peak hCav1.2 Ca2+ current inhibition, Mean” value (hCav1.2; site s01_p1, 1.00E-08 mol/L) was 5.6%. The “Peak hCav1.2 Ca2+ current inhibition, Mean” value (hCav1.2; site s01_p1, 3.00E-07 mol/L) was 16.7%, the “nH, Hill slope” value (hCav1.2; site s02_p2, corrected for rundown) was 0.64 and the “Peak hCav1.2 Ca2+ current inhibition, Mean” value (hCav1.2; site s02_p2, corrected for rundown, 1.00E-08 mol/L) was 4.4%. For the same compound, the “Peak hCav1.2 Ca2+ current inhibition, Mean” value (hCav1.2; site s02_p2, corrected for rundown, 3.00E-07 mol/L) was 34.4%, the “Peak hCav1.2 Ca2+ current inhibition, Mean” value (hCav1.2; site s04_p3, 1.00E-08 mol/L) was 12.6% and the “Peak hCav1.2 Ca2+ current inhibition, Mean” value (hCav1.2; site s04_p3, 3.00E-07 mol/L) was 17.5%. For the same compound, the “Peak hCav1.2 Ca2+ current inhibition, Mean” value (hCav1.2; site s06_p4, 1.00E-08 mol/L) was 5.9%, the “Peak hCav1.2 Ca2+ current inhibition, Mean” value (hCav1.2; site s06_p4, 3.00E-07 mol/L) was 13.9% and the “Peak hCav1.2 Ca2+ current inhibition, Mean” value (hCav1.2; site s11_p1, 1.00E-08 mol/L) was 13.2%. The “Peak hCav1.2 Ca2+ current inhibition, Mean” value (hCav1.2; site s11_p1, 3.00E-07 mol/L) was 21.4%, the “Peak hCav1.2 Ca2+ current inhibition, Mean” value (hCav1.2; site s14_p1, 1.00E-08 mol/L) was -0.1% and the “Peak hCav1.2 Ca2+ current inhibition, Mean” value (hCav1.2; site s14_p1, 3.00E-07 mol/L) was 8.2%. For the same compound, the “nH, Hill slope” value (hCav1.2; site s16_p3) was 0.51, the “Peak hCav1.2 Ca2+ current inhibition, Mean” value (hCav1.2; site s16_p3, 1.00E-08 mol/L) was 8.6% and the “Peak hCav1.2 Ca2+ current inhibition, Mean” value (hCav1.2; site s16_p3, 3.00E-07 mol/L) was 45.8%. For the same compound, the “Peak hCav1.2 Ca2+ current inhibition, Mean” value (hCav1.2; site s18_p1, 1.00E-08 mol/L) was 28.2%, the “Peak hCav1.2 Ca2+ current inhibition, Mean” value (hCav1.2; site s18_p1, 3.00E-07 mol/L) was 31.3% and the inhibition at 1e-08 mol/L (hERG; site_platform s07_p5) was 0.5%. The inhibition at 4 min, 1e-08 mol/L (hERG; site_platform s10_p3) was 1.5%, the inhibition at 7 min, 1e-08 mol/L (hERG; site_platform s11_p1) was 12% and the inhibition at 7 min, 1e-08 mol/L (hERG; site_platform s14_p1) was 41.9%.
